# Test results from ChEMBL document CHEMBL1127074, “Novel hypotensive agents from Verbesina caracasana. 2. Synthesis and pharmacology of caracasanamide” (1993).
# Columns and labels:
# Rattus norvegicus [1] = experiment: Tested for the change in systolic blood pressure administered at 25 ug/kg intravenously in anesthetized rats; type: functional, Artery
# Rattus norvegicus [2] = experiment: Tested for the change in diastolic blood pressure administered at 25 ug/kg intravenously in anesthetized rats; type: functional, Artery
# Rattus norvegicus [3] = experiment: Tested for change in heart rate administered at 25 uM/kg iv in anesthetized rats; type: functional
# Rattus norvegicus [4] = experiment: Maximum rate of rise of the left ventricular isovolumetric pressure administered at 25 uM/kg iv in anesthetized rats; type: functional, Heart left ventricle
# Rattus norvegicus [5] = experiment: Tested for the change in diastolic blood pressure administered at 12 ug/kg intravenously in anesthetized rats; type: functional, Artery
# Rattus norvegicus [6] = experiment: Tested for the change in systolic blood pressure administered at 12 ug/kg intravenously in anesthetized rats; type: functional, Artery
# Rattus norvegicus [7] = experiment: Tested for change in heart rate administered at 12 uM/kg iv in anesthetized rats; type: functional
# Rattus norvegicus [8] = experiment: Maximum rate of rise of the left ventricular isovolumetric pressure administered at 12 uM/kg iv in anesthetized rats; type: functional, Heart left ventricle
# Rattus norvegicus [9] = experiment: Tested for the change in diastolic blood pressure administered at 5 ug/kg intravenously in anesthetized rats; type: functional, Artery
# Rattus norvegicus [10] = experiment: Tested for change in heart rate administered at 5 uM/kg iv in anesthetized rats; type: functional
# Rattus norvegicus [11] = experiment: Maximum rate of rise of the left ventricular isovolumetric pressure administered at 5 uM/kg iv in anesthetized rats; type: functional, Heart left ventricle
# Rattus norvegicus [12] = experiment: Tested for the change in systolic blood pressure administered at 5 ug/kg intravenously in anesthetized rats; type: functional, Artery
# Rattus norvegicus [13] = experiment: Tested for the change in diastolic blood pressure administered at 8 ug/kg intravenously in anesthetized rats; type: functional, Artery
# Rattus norvegicus [14] = experiment: Tested for change in heart rate administered at 8 uM/kg iv in anesthetized rats; type: functional
# Rattus norvegicus [15] = experiment: Maximum rate of rise of the left ventricular isovolumetric pressure administered at 8 uM/kg iv in anesthetized rats; type: functional, Heart left ventricle
# Rattus norvegicus [16] = experiment: Tested for the change in systolic blood pressure administered at 8 ug/kg intravenously in anesthetized rats; type: functional, Artery
structure (smiles),measurement,setting,value
N=C(N)NCCN1CCCCCCC1 [GUANETHIDINE],Blood pressure,Rattus norvegicus [1],-27 mmHg
same,Blood pressure,Rattus norvegicus [2],-19 mmHg
same,Heart rate,Rattus norvegicus [3],-18 beats min-1
same,dp/dt,Rattus norvegicus [4],-863 mmHg s-1
C[N+](C)(C)CCCCCC[N+](C)(C)C.[Cl-].[Cl-] [HEXAMETHONIUM CHLORIDE],Blood pressure,Rattus norvegicus [5],-34 mmHg
same,Blood pressure,Rattus norvegicus [6],-44 mmHg
same,Heart rate,Rattus norvegicus [7],-48 beats min-1
same,dp/dt,Rattus norvegicus [8],-4040 mmHg s-1
COc1ccc(Cc2nccc3cc(OC)c(OC)cc23)cc1OC [PAPAVERINE],Blood pressure,Rattus norvegicus [9],-18 mmHg
same,Heart rate,Rattus norvegicus [10],-21 beats min-1
same,dp/dt,Rattus norvegicus [11],-604 mmHg s-1
same,Blood pressure,Rattus norvegicus [12],-23 mmHg
COC(=O)[C@H]1[C@H]2C[C@@H]3c4[nH]c5cc(OC)ccc5c4CCN3C[C@H]2C[C@@H](OC(=O)c2cc(OC)c(OC)c(OC)c2)[C@@H]1OC [RESERPINE],Blood pressure,Rattus norvegicus [13],-24 mmHg
same,Heart rate,Rattus norvegicus [14],-47 beats min-1
same,dp/dt,Rattus norvegicus [15],-1580 mmHg s-1
same,Blood pressure,Rattus norvegicus [16],-31 mmHg
